Reference: ChEMBL document CHEMBL4190339, “Design, synthesis and preliminary biological evaluation of new [1,2,3]triazolo[4,5-d]pyrimidine/thiourea hybrids as antiproliferative agents” (Eur J Med Chem, 2017)
The source made the active and inactive calls. The rule behind the calls is not given here.

Tests used:
[1] = system: GES1; experiment: Antiproliferative activity against human GES-1 cells after 48 hrs by MTT assay; format: cell-based; settings: GES1, 48 h
[2] = system: MKN-45; experiment: Antiproliferative activity against human MKN45 cells after 48 hrs by MTT assay; format: functional, cell-based; settings: MKN-45, 48 h
[3] = system: MGC-803; experiment: Antiproliferative activity against human MGC803 cells after 48 hrs by MTT assay; format: functional, cell-based; settings: MGC-803, 48 h
[4] = system: NCI-H1650; experiment: Antiproliferative activity against human NCI-H1650 cells after 48 hrs by MTT assay; format: functional, cell-based; settings: NCI-H1650, 48 h
[5] = system: A549; experiment: Antiproliferative activity against human A549 cells after 48 hrs by MTT assay; format: functional, cell-based; settings: A549, 48 h
[6] = system: ECa-109 cell line; experiment: Antiproliferative activity against human EC109 cells after 48 hrs by MTT assay; format: functional, cell-based; settings: ECa-109, 48 h
[7] = system: NCI-H1650; experiment: Induction of apoptosis in human NCI-H1650 cells assessed as increase in Bax expression measured after 24 hrs by Western blot analysis; format: functional, cell-based
[8] = system: NCI-H1650; experiment: Induction of apoptosis in human NCI-H1650 cells assessed as necrotic cells at 4 uM after 24 hrs by Annexin-V-FITC/propidium iodide staining based flow cytometry (reference value: 3.22%); format: functional
[9] = system: NCI-H1650; experiment: Cell cycle arrest in human NCI-H1650 cells assessed as accumulation at S phase at 8 uM after 24 hrs by propidium iodide staining-based flow cytometry (reference value: 36.2%); format: functional
[10] = system: NCI-H1650; experiment: Cell cycle arrest in human NCI-H1650 cells assessed as accumulation at G1 phase at 8 uM after 24 hrs by propidium iodide staining-based flow cytometry (reference value: 55.7%); format: functional
[11] = system: NCI-H1650; experiment: Induction of apoptosis in human NCI-H1650 cells assessed as viable cells at 2 uM after 24 hrs by Annexin-V-FITC/propidium iodide staining based flow cytometry (reference value: 83.6%); format: functional; settings: NCI-H1650, 24 h, read-out: Activity
[12] = system: NCI-H1650; experiment: Induction of apoptosis in human NCI-H1650 cells assessed as early apoptotic cells at 4 uM after 24 hrs by Annexin-V-FITC/propidium iodide staining based flow cytometry (reference value: 5.58%); format: functional
[13] = system: NCI-H1650; experiment: Induction of apoptosis in human NCI-H1650 cells assessed as late apoptotic cells at 2 uM after 24 hrs by Annexin-V-FITC/propidium iodide staining based flow cytometry (reference value: 7.64%); format: functional
[14] = system: NCI-H1650; experiment: Induction of apoptosis in human NCI-H1650 cells assessed as increase in cleaved caspase-9 level up to 8 uM after 24 hrs by Western blot analysis; format: functional, cell-based
[15] = system: NCI-H1650; experiment: Cell cycle arrest in human NCI-H1650 cells assessed as accumulation at S phase at 4 uM after 24 hrs by propidium iodide staining-based flow cytometry (reference value: 36.2%); format: functional
[16] = system: NCI-H1650; experiment: Induction of apoptosis in human NCI-H1650 cells assessed as increase in early apoptotic cells after 24 hrs by Annexin-V-FITC/propidium iodide staining based flow cytometry; format: functional, cell-based
[17] = system: NCI-H1650; experiment: Anticlonogenic activity against human NCI-H1650 cells assessed as inhibition of colony formation after 9 days by crystal violet staining-based assay; format: functional, cell-based
[18] = system: NCI-H1650; experiment: Cell cycle arrest in human NCI-H1650 cells assessed as accumulation at G1 phase at 4 uM after 24 hrs by propidium iodide staining-based flow cytometry (reference value: 55.7%); format: functional
[19] = system: NCI-H1650; experiment: Cell cycle arrest in human NCI-H1650 cells assessed as accumulation at G2/M phase at 8 uM after 24 hrs by propidium iodide staining-based flow cytometry (reference value: 12.4%); format: functional
[20] = system: NCI-H1650; experiment: Anticlonogenic activity against human NCI-H1650 cells assessed as inhibition of colony formation at 10 uM after 9 days by crystal violet staining-based assay relative to control; format: functional; settings: NCI-H1650, 216 h
[21] = system: NCI-H1650; experiment: Cell cycle arrest in human NCI-H1650 cells assessed as accumulation at G2/M phase at 4 uM after 24 hrs by propidium iodide staining-based flow cytometry (reference value: 12.4%); format: functional
[22] = system: NCI-H1650; experiment: Cell cycle arrest in human NCI-H1650 cells assessed as accumulation at G1 phase at 2 uM after 24 hrs by propidium iodide staining-based flow cytometry (reference value: 55.7%); format: functional
[23] = system: NCI-H1650; experiment: Induction of apoptosis in human NCI-H1650 cells assessed as early apoptotic cells at 2 uM after 24 hrs by Annexin-V-FITC/propidium iodide staining based flow cytometry (reference value: 5.58%); format: functional
[24] = system: NCI-H1650; experiment: Cell cycle arrest in human NCI-H1650 cells assessed as accumulation at S phase at 2 uM after 24 hrs by propidium iodide staining-based flow cytometry (reference value: 36.2%); format: functional
[25] = system: NCI-H1650; experiment: Induction of apoptosis in human NCI-H1650 cells assessed as late apoptotic cells at 4 uM after 24 hrs by Annexin-V-FITC/propidium iodide staining based flow cytometry (reference value: 7.64%); format: functional
[26] = system: NCI-H1650; experiment: Induction of apoptosis in human NCI-H1650 cells assessed as increase in cleaved caspase-3 level up to 8 uM after 24 hrs by Western blot analysis; format: functional, cell-based
[27] = system: NCI-H1650; experiment: Cell cycle arrest in human NCI-H1650 cells assessed as accumulation at G2/M phase after 24 hrs by propidium iodide staining-based flow cytometry; format: functional
[28] = Selectivity index, ratio of IC50 for human GES-1 cells to IC50 for human NCI-H1650 cells; format: toxicity; settings: GES-1 cells versus NCI-H1650 cells, read-out: Ratio IC50
[29] = system: NCI-H1650; experiment: Induction of apoptosis in human NCI-H1650 cells assessed as necrotic cells at 2 uM after 24 hrs by Annexin-V-FITC/propidium iodide staining based flow cytometry (reference value: 3.22%); format: functional
[30] = system: NCI-H1650; experiment: Induction of apoptosis in human NCI-H1650 cells assessed as viable cells at 4 uM after 24 hrs by Annexin-V-FITC/propidium iodide staining based flow cytometry (reference value: 83.6%); format: functional; settings: NCI-H1650, 24 h, read-out: Activity
[31] = system: NCI-H1650; experiment: Cell cycle arrest in human NCI-H1650 cells assessed as accumulation at G2/M phase at 2 uM after 24 hrs by propidium iodide staining-based flow cytometry (reference value: 12.4%); format: functional
[32] = system: NCI-H1650; experiment: Induction of apoptosis in human NCI-H1650 cells assessed as reduction in Bcl-2 expression up to 8 uM after 24 hrs by Western blot analysis; format: functional, cell-based

CCCSc1nc(NCCNC(=S)Nc2cccnc2)c2nnn(Cc3ccccc3)c2n1
IC50 [1]: 21.9 µM
IC50 [2]: 15.1 µM
IC50 [3]: 24 µM
IC50 [4]: 9.56 µM
IC50 [5]: 12 µM
IC50 [6]: 10.8 µM

CCCSc1nc(NCCNC(=S)Nc2ccc(Cl)cc2)c2nnn(CCc3ccccc3)c2n1
IC50 [1]: 41.2 µM
IC50 [2]: 37.6 µM
IC50 [3]: 27.2 µM
IC50 [4]: 13.2 µM
IC50 [5]: 23.2 µM
IC50 [6]: 10.6 µM

CCCSc1nc(NCCNC(=S)Nc2cccnc2)c2nnn(CCO)c2n1
IC50 [1]: > 64 µM
IC50 [2]: 25 µM
IC50 [3]: > 64 µM
IC50 [4]: 45.9 µM
IC50 [5]: > 64 µM
IC50 [6]: 18.2 µM

CCCSc1nc(NCCNC(=S)Nc2ccc([N+](=O)[O-])cc2)c2nnn(CCc3ccccc3)c2n1
IC50 [1]: 35.2 µM
IC50 [2]: 48.2 µM
IC50 [3]: > 64 µM
IC50 [4]: 26.1 µM
IC50 [5]: 39.1 µM
IC50 [6]: 58.1 µM

CCCSc1nc(NCCNC(=S)Nc2cccnc2)c2nnn(C3CCCC3)c2n1
IC50 [1]: 32.9 µM
IC50 [2]: 13.5 µM
IC50 [3]: 19.2 µM
IC50 [4]: 8.99 µM
IC50 [5]: 15.1 µM
IC50 [6]: 12.6 µM

CCCSc1nc(NCCNC(=S)Nc2ccccc2Cl)c2nnn(CCc3ccccc3)c2n1
IC50 [1]: > 64 µM
IC50 [2]: > 64 µM
IC50 [3]: > 64 µM
IC50 [4]: 18.2 µM
IC50 [5]: > 64 µM
IC50 [6]: > 64 µM

CCCSc1nc(NCCNC(=S)NCc2ccccc2)c2nnn(CCc3ccccc3)c2n1
IC50 [1]: 51.3 µM
IC50 [2]: 22.9 µM
IC50 [3]: 17.4 µM
IC50 [4]: > 64 µM
IC50 [5]: > 64 µM
IC50 [6]: 13.8 µM

CCCSc1nc(NCCNC(=S)Nc2ccccc2)c2nnn(CCc3ccccc3)c2n1
IC50 [1]: 53.1 µM
IC50 [2]: > 64 µM
IC50 [3]: > 64 µM
IC50 [4]: 49.5 µM
IC50 [5]: > 64 µM
IC50 [6]: 37.2 µM

CCCSc1nc(NCCNC(=S)Nc2ccc(C)cc2)c2nnn(CCc3ccccc3)c2n1
IC50 [1]: 43 µM
IC50 [2]: 50.6 µM
IC50 [3]: 35.2 µM
IC50 [4]: 58.8 µM
IC50 [5]: 42.4 µM
IC50 [6]: 28.4 µM

O=c1[nH]cc(F)c(=O)[nH]1 [FLUOROURACIL]
IC50 [1]: 9.02 µM

CCCSc1nc(NCCNC(=S)Nc2cccc(Cl)c2)c2nnn(CCc3ccccc3)c2n1
IC50 [1]: 60.4 µM
IC50 [2]: 30.1 µM
IC50 [3]: 27 µM
IC50 [4]: 17 µM
IC50 [5]: 15.8 µM
IC50 [6]: 11.8 µM

CCCSc1nc(NCCNC(=S)Nc2cccnc2)c2nnn(CCc3c[nH]c4ccccc34)c2n1
Activity [7]: Dose-dependent effect
Activity [8]: 1.38%
Activity [9]: 38.4%
IC50 [1]: 27.4 µM
Activity [10]: 20.8%
viability at 2 µM [11]: 51.1%
Activity [12]: 36.7%
IC50 [2]: 3.22 µM
Activity [13]: 12.3%
Activity [14]: Active
Activity [15]: 21.9%
Activity [16]: Dose-dependent effect
inhibition [17]: Dose-dependent effect
IC50 [3]: 9.21 µM
Activity [18]: 27.2%
Activity [19]: 45.6%
inhibition at 10 µM [20]: ≤ 68%
IC50 [4]: 1.91 µM
Activity [21]: 34.7%
Activity [22]: 30.6%
IC50 [5]: 3.28 µM
Activity [23]: 35.5%
Activity [24]: 35.1%
Activity [25]: 15.1%
Activity [26]: Active
Activity [27]: Dose-dependent effect
selectivity ratio [28]: 14.4
Activity [29]: 1.14%
viability at 4 µM [30]: 46.8%
Activity [31]: 23.2%
Activity [32]: Active
IC50 [6]: 8.12 µM

CCCSc1nc(NCCNC(=S)Nc2cccc3ccccc23)c2nnn(CCc3ccccc3)c2n1
IC50 [1]: > 64 µM
IC50 [2]: 9.73 µM
IC50 [3]: > 64 µM
IC50 [4]: 6.51 µM
IC50 [5]: 40.9 µM
IC50 [6]: > 64 µM

CCCCc1ccc(NC(=S)NCCNc2nc(SCCC)nc3c2nnn3CCc2ccccc2)cc1
IC50 [1]: > 64 µM
IC50 [2]: > 64 µM
IC50 [3]: 31.2 µM
IC50 [4]: 40.9 µM
IC50 [5]: > 64 µM
IC50 [6]: 18.9 µM

CCCSc1nc(NCCNC(=S)Nc2ccc(Br)cc2)c2nnn(CCc3ccccc3)c2n1
IC50 [1]: > 64 µM
IC50 [2]: 40 µM
IC50 [3]: 38.1 µM
IC50 [4]: 51.1 µM
IC50 [5]: 32.5 µM
IC50 [6]: 23.1 µM

CCCSc1nc(NCCNC(=S)Nc2ccccn2)c2nnn(CCc3ccccc3)c2n1
IC50 [1]: 23.1 µM
IC50 [2]: 8.09 µM
IC50 [3]: 11.6 µM
IC50 [4]: 7.62 µM
IC50 [5]: 5.91 µM
IC50 [6]: 5.41 µM

CCCSc1nc(NCCNC(=S)Nc2cccc(C(F)(F)F)c2)c2nnn(CCc3ccccc3)c2n1
IC50 [1]: 23.2 µM
IC50 [2]: 35.6 µM
IC50 [3]: 33.9 µM
IC50 [4]: 24.2 µM
IC50 [5]: 17.2 µM
IC50 [6]: 17.8 µM

CCCSc1nc(NCCNC(=S)Nc2cccnc2)c2nnn(CC(C)C)c2n1
IC50 [1]: 48.2 µM
IC50 [2]: 19.2 µM
IC50 [3]: 25.2 µM
IC50 [4]: 15.3 µM
IC50 [5]: 10.6 µM
IC50 [6]: > 64 µM

CCCSc1nc(NCCNC(=S)Nc2cccnc2)c2nnn(CCc3ccccc3)c2n1
IC50 [1]: 30.3 µM
IC50 [2]: 6.58 µM
IC50 [3]: 16.4 µM
IC50 [4]: 2.38 µM
IC50 [5]: 8.23 µM
IC50 [6]: 4.99 µM
